Measurements published in patent EP1441698B1, “FLASHMELT ORAL DOSAGE FORMULATION” (Otsuka Pharmaceutical Co., Ltd., priority 2001, dated 2003).

Assay: Hygroscopicity: water content of crystals after storage in a desiccator (e.g. Karl Fischer method)
Assay type: physicochemical
Conditions: after 24 hours inside a dessicator at 60°C and a humidity of 100%
Procedure: Aripiprazole Anhydride Crystals B of the present invention have low hygroscopicity. For example, Aripiprazole Anhydride Crystals B of the present invention maintain a water content of 0.4% or less after 24 hours inside a dessicator set at a temperature of 60°C and a humidity of 100%.
Well-known methods of measuring water content can be used as long as they are methods commonly used for measuring the water content of crystals. For example, a method such as the Karl Fischer method can be used.

- water content: ≤ 0.4%
SMILES: O=C1CCc2ccc(OCCCCN3CCN(c4cccc(Cl)c4Cl)CC3)cc2N1 [Aripiprazole Anhydride Crystals B, aripiprazole]
